According to patent publication US11576897B2, “Therapeutic agent for non-motor symptoms associated with Parkinson's disease” (priority 2017, dated 2023):
Structures can show the parent of a compound that is named as a salt. Where two headings read alike, the source gives them in different places.

Assays:
[1] = target: human serotonin transporter (SERT) (Homo sapiens (Human), UniProt P31645); experiment: Human serotonin transporter (SERT) binding test
human 5-HT2A receptor = human 5-HT2A receptor (Homo sapiens (Human), UniProt P28223); experiment: biochemical; format: binding
human 5-HT2C receptor = human 5-HT2C receptor (Homo sapiens (Human), UniProt P28335)
[2] = [3H]-ketanserin, human 5-HT2A receptor-expressed CHO cell membrane, read-out: 5-HT2A receptor binding inhibition constant Ki
[3] = [3H]-citalopram, h-SERT/CHO cell membrane, read-out: h-SERT binding inhibition constant Ki
[4] = read-out: 5-HT2A receptor binding inhibition constant Ki

human 5-HT2C receptor, sequence (P28335 whole entry, looked up): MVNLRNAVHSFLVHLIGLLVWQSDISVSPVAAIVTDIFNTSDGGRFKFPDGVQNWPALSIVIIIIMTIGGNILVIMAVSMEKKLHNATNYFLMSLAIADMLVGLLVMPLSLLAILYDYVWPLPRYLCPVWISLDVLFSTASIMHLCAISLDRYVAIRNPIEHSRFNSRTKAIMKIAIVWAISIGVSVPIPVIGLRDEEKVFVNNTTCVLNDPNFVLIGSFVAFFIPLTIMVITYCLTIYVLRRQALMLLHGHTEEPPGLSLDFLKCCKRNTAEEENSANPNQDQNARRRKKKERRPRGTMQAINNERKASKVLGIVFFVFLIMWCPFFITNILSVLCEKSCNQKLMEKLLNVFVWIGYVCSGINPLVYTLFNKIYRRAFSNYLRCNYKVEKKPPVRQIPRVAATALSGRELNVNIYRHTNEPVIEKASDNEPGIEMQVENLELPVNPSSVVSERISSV

Row | Structure (SMILES) | Ki [1] [nM] | Ki (human 5-HT2A receptor) [nM] | Ki (human 5-HT2C receptor) [nM] | Ki (human 5-HT2A receptor; [2]) [nM] | Ki [1, 3] [nM] | Ki (human 5-HT2A receptor; [4]) [nM]
1 | [2H]C([2H])(NC)c1cc(OCc2ccccc2)n(CC2CCCCC2)n1 [Example 492, 1-[5-(Benzyloxy)-1-(cyclohexylmethyl)-1H-pyrazol-3-yl]-N-methyl(^2H2)methanamine] | 1.4 | 2.9 | 6.8 |  |  | 
2 | Cl.[2H]C([2H])(Oc1cc(CNC)nn1CC1CCCC1)c1cc(Cl)ccc1F [Example 496, 1-[5-{[(5-Chloro-2-fluorophenyl) (^2H2)methyl]oxy}-1-(cyclopentylmethyl)-1H-pyrazol-3-yl]-N-methylmethanamine Hydrochloride] | 2 | 1.7 | 1.1 |  |  | 
3 | CNCc1cc(OCc2ccccc2Cl)n(C(C)C2CCCCC2)n1 (stereo not drawn) [Example 296, 1-{5-[(2-chlorobenzyl)oxy]-1-(1-cyclohexylethyl)-1H-pyrazol-3-yl}-N-methylmethanamine] | 0.91 |  | 6.2 | 2.1 |  | 
4 | CNCc1cc(OCc2cc(F)ccc2F)n(C(C)C2CCCCC2)n1 (stereo not drawn) [Example 303, 1-{1-(1-cyclohexylethyl)-5-[(2,5-difluorobenzyl)oxy]-1H-pyrazol-3-yl}-N-methylmethanamine] |  |  |  | 1.8 | 0.46 | 
5 | [2H]C([2H])([2H])NC([2H])([2H])c1cc(OCc2ccccc2)n(CC2CCCCC2)n1 [Example 493, 1-[5-(Benzyloxy)-1-(cyclohexylmethyl)-1H-pyrazol-3-yl]-N-(^2H3)methyl(^2H2) methanamine] | 1.1 | 2.3 | 7.2 |  |  | 
6 | CNCc1cc(OCc2ccc(F)cc2C)n(CC2CCCCO2)n1 (stereo not drawn) [Example 108, 1-{5-[(4-fluoro-2-methylbenzyl)oxy]-1-(tetrahydro-2H-pyran-2-ylmethyl)-1H-pyrazolo-3-yl}-N-methylmethanamine] |  |  |  | 4.8 | 1.9 | 
7 | CNCc1cc(OCc2cc(F)ccc2Cl)n(CC2CCCCC2)n1 [Example 37, 1-{5-[(2-chloro-5-fluorobenzyl)oxy]-1-(cyclohexylmethyl)-1H-pyrazol-3-yl}-N-methylmethanamine] |  |  |  |  | 0.89 | 2.1
8 | CNCc1nn(CC2CCCCC2)c(OCc2cc(F)ccc2F)c1F [Example 351] |  |  |  | 15 | 0.98 | 
9 | CNCc1cc(OCc2ccc(F)cc2Cl)n(C(C)C2CCCCC2)n1 (stereo not drawn) [Example 301, 1-{5-[(2-chloro-4-fluorobenzyl)oxy]-1-(1-cyclohexylethyl)-1H-pyrazol-3-yl}-N-methylmethanamine] |  |  |  | 0.88 | 1.3 | 
10 | CNCc1cc(OCc2ccccc2C)n(C(C)C2CCCCC2)n1 (stereo not drawn) [Example 298, 1-{1-(1-cyclohexylethyl)-5-[(2-methylbenzyl)oxy]-1H-pyrazol-3-yl}-N-methylmethanamine] |  |  |  | 3.3 | 0.56 | 
11 | CNCc1cc(OCc2ccc(F)cc2)n(C(C)C2CCCCC2)n1 (stereo not drawn) [Example 295, 1-{1-(1-cyclohexylethyl)-5-[(4-fluorobenzyl)oxy]-1H-pyrazol-3-yl}-N-methylmethanamine] |  |  |  | 0.74 | 0.95 | 
12 | CNCc1cc(OCc2ccccc2)n(C(C)C2CCCCC2)n1 (stereo not drawn) [Example 292, 1-[5-(benzyloxy)-1-(1-cyclohexylethyl)-1H-pyrazol-3-yl]-N-methylmethanamine] |  |  |  | 1.2 | 0.96 | 
13 | CNCc1cc(OCc2cc(F)ccc2F)n(Cc2ccc(Cl)cc2)n1 [Example 224, 1-{1-(4-chlorobenzyl)-5-[(2,5-difluorobenzyl)oxy]-1H-pyrazol-3-yl}-N-methylmethanamine] |  |  |  | 1.2 | 1.5 | 
14 | CNCc1cc(OCc2cc(F)ccc2F)n(CC2CC3CCC2C3)n1 (stereo not drawn) [Example 117, 1-{1-(bicyclo[2.2.1]hept-2-ylmethyl)-5-[(2,5-difluorobenzyl)oxy]-1H-pyrazol-3-yl}-N-methylmethanamine] |  |  |  |  | 0.5 | 0.76
15 | CNCc1cc(OCc2cc(Cl)ccc2F)n(C(C)C2CCCCC2)n1 (stereo not drawn) [Example 304, 1-{5-[(5-chloro-2-fluorobenzyl)oxy]-1-(1-cyclohexylethyl)-1H-pyrazol-3-yl}-N-methylmethanamine] |  |  |  |  | 1.3 | 1.4
16 | CNCc1cc(OCc2ccc(F)cc2C)n(C(C)C2CCCCC2)n1 (stereo not drawn) [Example 302, 1-{1-(1-cyclohexylethyl)-5-[(4-fluoro-2-methylbenzyl)oxy]-1H-pyrazol-3-yl}-N-methylmethanamine] |  |  |  | 0.94 | 1.4 | 
17 | CNCc1cc(OCc2cc(C)ccc2F)n(C(C)C2CCCCC2)n1 (stereo not drawn) [Example 305, 1-{1-(1-cyclohexylethyl)-5-[(2-fluoro-5-methylbenzyl)oxy]-1H-pyrazol-3-yl}-N-methylmethanamine] |  |  |  |  | 2 | 2.5
18 | CNCc1cc(OCc2ccc(F)cc2F)n(C(C)C2CCCCC2)n1 (stereo not drawn) [Example 300, 1-{1-(1-cyclohexylethyl)-5-[(2,4-difluorobenzyl)oxy]-1H-pyrazol-3-yl}-N-methylmethanamine] |  |  |  | 0.57 | 1.8 | 
19 | [2H]C([2H])([2H])NCc1cc(OCc2ccccc2)n(CC2CCCCC2)n1 [Example 494, 1-[5-(Benzyloxy)-1-(cyclohexylmethyl)-1H-pyrazol-3-yl]-N-(^2H3)methylmethanamine] | 1.1 | 3.6 | 7.1 |  |  | 
20 | CNCc1cc(OCc2cc(Cl)ccc2Cl)n(CC2CCCCC2)n1 [Example 38, 1-{1-(cyclohexylmethyl)-5-[(2,5-dichlorobenzyl)oxy]-1H-pyrazol-3-yl}-N-methylmethanamine] |  |  |  | 3.2 | 2.4 | 
21 | CNCc1cc(OCc2ccccc2F)n(CC2CCCCC2)n1 [Example 20, 1-{1-(cyclohexylmethyl)-5-[(2-fluorobenzyl)oxy]-1H-pyrazol-3-yl}-N-methylmethanamine] |  |  |  | 0.65 | 1.6 | 
22 | [2H]C([2H])(Oc1cc(CNC)nn1CC1CCCC1)c1cc(F)ccc1F [Example 495, 1-[1-(Cyclopentylmethyl)-5-{[(2,5-difluorophenyl) (^2H2)methyl]oxy}-1H-pyrazol-3-yl]-N-methylmethanamine Hydrochloride] | 0.24 |  | 2.5 | 2 |  | 
23 | CNCc1cc(OCc2ccccc2Cl)n(CC2CCCC2)n1 [Example 138, 1-{5-[(2-chlorobenzyl)oxy]-1-(cyclopentylmethyl)-1H-pyrazol-3-yl}-N-methylmethanamine] |  |  |  | 11 | 1.8 | 
24 | CNCc1cc(OCc2ccccc2C#N)n(CC2CCCC2)n1 [Example 162, 2-[({1-(cyclopentylmethyl)-3-[(methylamino)methyl]-1H-pyrazol-5-yl}oxy)methyl]benzonitrile] |  |  |  |  | 7.8 | 2.7
25 | CNCc1cc(OCc2cc(Cl)ccc2F)n(CC2CC3CCC2C3)n1 (stereo not drawn) [Example 118, 1-{1-(bicyclo[2.2.1]hept-2-ylmethyl)-5-[(5-chloro-2-fluorobenzyl)oxy]-1H-pyrazol-3-yl}-N-methylmethanamine] |  |  |  | 0.73 | 2 | 
26 | CNCc1cc(OCc2ccc(F)cc2Cl)n(CC2CCCCC2)n1 [Example 30, 1-{5-[(2-chloro-4-fluorobenzyl)oxy]-1-(cyclohexylmethyl)-1H-pyrazol-3-yl}-N-methylmethanamine] |  |  |  | 0.52 | 1.5 | 
27 | CNCc1cc(OCc2cccc(C)c2)n(C(C)C2CCCCC2)n1 (stereo not drawn) [Example 299, 1-{1-(1-cyclohexylethyl)-5-[(3-methylbenzyl)oxy]-1H-pyrazol-3-yl}-N-methylmethanamine] |  |  |  | 5.6 | 1.4 | 
